Converted amounts (≈) assume the structure as drawn.
Columns and labels:
[1] = Selectivity index, ratio of I50 for mouse J774A1 cells to GI50 for Mycobacterium tuberculosis H37Rv; assay type: toxicity, cell-based, J774.A1; settings: read-out: Selectivity Index
[2] = Cytotoxicity against mouse J774A1 cells after 24 hrs by neutral red dye uptake assay; assay type: cell-based; settings: J774.A1, 24 h, read-out: I50
Salmonella typhimurium [3] = assay: Genotoxicity in Salmonella typhimurium T104 Genox (recN2-4) expressing lux operon assessed as S/N ratio at 0.1 to 10 ug/mL measured for 4 hrs with 5 mins interval by vitotox assay in presence of S9 fraction; assay type: toxicity, organism-based; settings: salmonella enterica subsp. enterica serovar typhimurium, s9, 4 h
[4] = tested on: Mycobacterium tuberculosis; assay: Antimycobacterial activity against Mycobacterium tuberculosis H37Rv infected in mouse J774A1 cells assessed as reduction in bacterial load inside the cell at 6.25 ug/mL treatment stated after 24 hrs of infection for 4 days by luminometry; assay type: functional, J774.A1; design: scale not given: the % may be the effect or the level left
[5] = tested on: Mycobacterium tuberculosis; assay: Antimycobacterial activity against Mycobacterium tuberculosis H37Rv infected in mouse J774A1 cells assessed as reduction in extracellular bacterial load at 3.13 ug/mL treatment stated after 24 hrs of infection for 4 days by luminometry; assay type: functional, J774.A1
Salmonella typhimurium [6] = assay: Genotoxicity in Salmonella typhimurium Cytox (pr1) expressing lux operon assessed as S/N ratio at 0.1 to 10 ug/mL measured for 4 hrs with 5 mins interval by vitotox assay; assay type: toxicity, organism-based; settings: salmonella enterica subsp. enterica serovar typhimurium
[7] = tested on: Mycobacterium tuberculosis; assay: Antimycobacterial activity against Mycobacterium tuberculosis H37Rv infected in mouse J774A1 cells assessed as reduction in bacterial load inside the cell at 3.13 ug/mL treatment stated after 24 hrs of infection for 4 days by luminometry; assay type: functional, J774.A1; design: scale not given: the % may be the effect or the level left
[8] = Cytotoxicity against mouse J774A1 cells assessed as structural organization of DNA at 0.5 to 5 ug/mL after 24 hrs by Comet assay; assay type: cell-based; settings: j774.a1, 24 h
Salmonella typhimurium [9] = assay: Genotoxicity in Salmonella typhimurium Cytox (pr1) expressing lux operon assessed as S/N ratio at 0.1 to 10 ug/mL measured for 4 hrs with 5 mins interval by vitotox assay in presence of S9 fraction; assay type: toxicity, organism-based; settings: salmonella enterica subsp. enterica serovar typhimurium, s9, 4 h
Salmonella typhimurium [10] = assay: Genotoxicity in Salmonella typhimurium T104 Genox (recN2-4) expressing lux operon assessed as S/N ratio at 0.1 to 10 ug/mL measured for 4 hrs with 5 mins interval by vitotox assay; assay type: toxicity, organism-based; settings: salmonella enterica subsp. enterica serovar typhimurium
[11] = tested on: Mycobacterium tuberculosis; assay: Antimycobacterial activity against Mycobacterium tuberculosis H37Rv infected in mouse J774A1 cells assessed as reduction in bacillary replication at 6.25 ug/mL treatment stated after 24 hrs of infection for 4 days by luminometry; assay type: functional, J774.A1
[12] = tested on: Mycobacterium tuberculosis; assay: Antimycobacterial activity against Mycobacterium tuberculosis H37Rv infected in mouse J774A1 cells assessed as reduction in bacillary replication at 12.5 ug/mL treatment stated after 24 hrs of infection for 4 days by luminometry; assay type: functional, J774.A1
[13] = tested on: Mycobacterium tuberculosis; assay: Antimycobacterial activity against Mycobacterium tuberculosis H37Rv infected in mouse J774A1 cells assessed as reduction in bacillary replication at 3.13 ug/mL treatment stated after 24 hrs of infection for 4 days by luminometry; assay type: functional, J774.A1

SMILES | selectivity ratio [1] | IC50 [2] | other results
CCCCCn1c(=O)c2c3c(cnc2n(CCCCC)c1=O)C(=O)C1=C(C3=O)C2CCC1C2 (stereo not given) | 10.6 | 13.4 µg/mL (≈ 29.7 µM) | 
CCn1c(=O)c2c3c(cnc2n(CC)c1=O)C(=O)C1=C(C3=O)C2CCC1C2 (stereo not given) | 10.8 | 18.2 µg/mL (≈ 49.9 µM) | 
CCCn1c(=O)c2c3c(cnc2n(CCC)c1=O)C(=O)C1=C(C3=O)C2CCC1C2 (stereo not given) | 18.7 | 18.7 µg/mL (≈ 47.5 µM) | 
CCCCCn1c(=O)c2c3c(cnc2n(CCCCC)c1=O)C(=O)C1=C(C3=O)C2CCC1CC2 | 11 | 16.4 µg/mL (≈ 35.3 µM) | 
CC(C)n1c(=O)c2c3c(cnc2n(C(C)C)c1=O)C(=O)C1=C(C3=O)C2CCC1C2 (stereo not given) | 10.8 | 9.71 µg/mL (≈ 24.7 µM) | Ratio (Salmonella typhimurium [3]): 0.8; Activity [4]: 98.03%; inhibition (INH) [5]: 99%; Ratio (Salmonella typhimurium [6]): < 1.5; Activity [7]: 57.72%; Activity [8]: Non-toxic; Ratio (Salmonella typhimurium [9]): < 1.5; Ratio (Salmonella typhimurium [10]): 0.8
CC(C)CCn1c(=O)c2c3c(cnc2n(CCC(C)C)c1=O)C(=O)C1=C(C3=O)C2CCC1CC2 | 4.77 | 23.4 µg/mL (≈ 50.4 µM) | 
CCn1c(=O)c2c3c(cnc2n(CC)c1=O)C(=O)C1=C(C3=O)C2CCC1CC2 | 7.79 | 19.9 µg/mL (≈ 52.4 µM) | 
CC(C)Cn1c(=O)c2c3c(cnc2n(CC(C)C)c1=O)C(=O)C1=C(C3=O)C2CCC1C2 (stereo not given) | 8.06 | 16.8 µg/mL (≈ 39.8 µM) | 
Cn1c(=O)c2c3c(cnc2n(C)c1=O)C(=O)C1=C(C3=O)C2CCC1CC2 | 5.94 | 16.8 µg/mL (≈ 47.8 µM) | 
CCCCCCCn1c(=O)c2c3c(cnc2n(CCCCCCC)c1=O)C(=O)C1=C(C3=O)C2CCC1CC2 | 24.8 | 32.8 µg/mL (≈ 63.1 µM) | Ratio (Salmonella typhimurium [3]): 0.8; Ratio (Salmonella typhimurium [6]): < 1.5; inhibition (INH) [11]: 68.8%; Activity [8]: Non-toxic; Ratio (Salmonella typhimurium [9]): < 1.5; Ratio (Salmonella typhimurium [10]): 0.8; inhibition (INH) [12]: 92%
CCCCCCCn1c(=O)c2c3c(cnc2n(CCCCCCC)c1=O)C(=O)C1=C(C3=O)C2CCC1C2 (stereo not given) | 42 | 26.5 µg/mL (≈ 52.3 µM) | Ratio (Salmonella typhimurium [3]): 0.8; Ratio (Salmonella typhimurium [6]): < 1.5; inhibition (INH) [11]: 80.4%; Activity [8]: Non-toxic; Ratio (Salmonella typhimurium [9]): < 1.5; inhibition (INH) [13]: 65.5%; Ratio (Salmonella typhimurium [10]): 0.8; inhibition (INH) [12]: 91.3%
CC(C)n1c(=O)c2c3c(cnc2n(C(C)C)c1=O)C(=O)C1=C(C3=O)C2CCC1CC2 | 16.1 | 11.8 µg/mL (≈ 28.9 µM) | Ratio (Salmonella typhimurium [3]): 0.8; Ratio (Salmonella typhimurium [6]): < 1.5; inhibition (INH) [11]: 82.3%; Activity [8]: Non-toxic; Ratio (Salmonella typhimurium [9]): < 1.5; inhibition (INH) [13]: 58.7%; Ratio (Salmonella typhimurium [10]): 0.8
CCCCCCn1c(=O)c2c3c(cnc2n(CCCCCC)c1=O)C(=O)C1=C(C3=O)C2CCC1C2 (stereo not given) | 9.9 | 12.1 µg/mL (≈ 25.3 µM) | 
CC(C)CCn1c(=O)c2c3c(cnc2n(CCC(C)C)c1=O)C(=O)C1=C(C3=O)C2CCC1C2 (stereo not given) | 9.32 | 22.5 µg/mL (≈ 50 µM) | 
CCCn1c(=O)c2c3c(cnc2n(CCC)c1=O)C(=O)C1=C(C3=O)C2CCC1CC2 | 8.5 | 22 µg/mL (≈ 54 µM) | 
CC(C)Cn1c(=O)c2c3c(cnc2n(CC(C)C)c1=O)C(=O)C1=C(C3=O)C2CCC1CC2 | 4.69 | 20.4 µg/mL (≈ 46.9 µM) | 
CCCCn1c(=O)c2c3c(cnc2n(CCCC)c1=O)C(=O)C1=C(C3=O)C2CCC1CC2 | 5.36 | 9.87 µg/mL (≈ 22.7 µM) | 
Cn1c(=O)c2c3c(cnc2n(C)c1=O)C(=O)C1=C(C3=O)C2CCC1C2 (stereo not given) | 9.72 | 15.4 µg/mL (≈ 45.5 µM) | 
CCCCn1c(=O)c2c3c(cnc2n(CCCC)c1=O)C(=O)C1=C(C3=O)C2CCC1C2 (stereo not given) | 6.51 | 9.5 µg/mL (≈ 22.5 µM) | 
CCCCCCn1c(=O)c2c3c(cnc2n(CCCCCC)c1=O)C(=O)C1=C(C3=O)C2CCC1CC2 | 10.1 | 13.7 µg/mL (≈ 27.9 µM) | 
